Experimental data as given in patent publication US6288091A, “Antiherpes virus compounds and methods for their preparation and use” (Boehringer Ingelheim Ltd., priority 1999, dated 2001).
Read-outs that look alike come from different tables or passages of the source.

Key:
HSV-1 strain F or KOS = assay: Inhibition of herpes simplex virus (HSV-1) replication in cell culture (BHK-21 cells, glycoprotein C ELISA); type: cell-based
Procedure: B) Inhibition of Herpes Simplex Virus (HSV-1) Replication in Cell Culture
BHK-21 cells clone 13 (ATCC CCL10) were incubated for two days in 850 cm^2 roller bottles (2×10^7 cells/bottle) with A-MEM medium (Gibco Canada Inc., Burlington, Ontario, Canada) supplemented with 8% (v/v) fetal bovine serum (FBS, Gibco Canada, Inc.). The cells were trypsinized and then 3,000 cells in 100 μL of fresh medium were transferred into each well of a 96-well microtiter plate. The cells were incubated at […] for a period of 3 days to reach a density of 50,000 cells per well. The cells were washed twice with 100 μL of α-MEM supplemented with 2% heat inactivated FBS and incubated for 1-2 hours in 100 μL of the same medium.
Thereafter, the cells were infected with HSV-1 strain F or KOS (multiplicity of infection =0.05 PFU/cell) in 50 μL of α-MEM supplemented with 2% heat inactivated FBS. Following one hour of virus absorption at 37°, the medium was removed and the cells were washed with α-MEM supplemented with 2% heat inactivated FBS (2×100 μL). The cells were incubated with or without 100 μL of the appropriate concentration of test reagent in α-MEM medium supplemented with 2% heat inactivated FBS. After 24 hours of incubation at 37°, the extent of viral replication was determined by an ELISA assay; for instance, the following assay that detects the late glycoprotein C of HSV-1.
Cells were fixed in the microtiter plate with 100 μL of 0.063% glutaraldehyde in phosphate buffered saline for 30 min at room temperature. The microtiter plate was then washed once with casein blocking solution and blocked with 200 μL of the same solution for one hour at room temperature. Thereafter, 100 μL of mAb C11 recognizing the glycoprotein C of HSV-1 (see E. Trybala et al., Journal of General Virology, 1994, 75, 743) was added to each well for two hours at room temperature. The plate was washed three times with phosphate buffered saline containing 0.05% polyoxyethylene (20) sorbitan monooleate. The cells were incubated with 100 μL of sheep anti-mouse IgG horseradish peroxidase for one hour at room temperature in the dark.
The plate was washed three times with 200 μL of the above-noted phosphate buffer saline preparation, and then once with 0.1 M sodium citrate (pH 4.5). Thereafter, 100 μL of orthophenylenediamine dihydrochloride (OPD, Gibco, Canada Inc.) was added to each well. The plate was agitated on a microplate shaker for 30 min in the dark. Color development was monitored at 450 nm using a microplate spectrophotometer.
SAS was used to calculate % inhibition of viral replication and to generate EC50 values.

HSV-1 helicase-primase = biological target: T1, HSV-1 helicase-primase (Human herpesvirus 1, UniProt P10189+P10236); assay: HSV-1 DNA-dependent ATPase assay (inhibition of HSV-1 helicase-primase); type: biochemical
T1 construct: made in house; host or cells: Sf21 insect cells triply infected with recombinant baculoviruses (UL5, UL8, UL52)
Description: A) HSV-1 DNA-Dependent ATP Assay (an in Vitro Assay Based on the Inhibition of HSV-1 Helicase-primase).
HSV-1 helicase-primase holoenzyme was produced in triply infected Sf21 cells using recombinant baculoviruses expressing the UL5, UL8 and UL52 helicase-primase subunits, as described by S. Dracheva et al., J. Biol. Chem. 1995, 270, 14148. The crude enzyme was purified by ammonium sulfate precipitation, Source 15Q® chromatography and Sephacryl® S-300 HR gel filtration (both purification systems can be obtained from Pharmacia Biotech Inc., Montreal, Quebec, Canada), see S. Dracheva et al., supra.
The DNA-dependent ATPase assay, described by J. J. Crute et al., Nucleic Acids Res. 1988, 16, 6585, was modified and used to evaluate the capability of the compounds of Group 1-formula 1 to inhibit HSV-1 helicase-primase activity. The reaction mixtures (80 μL each) contained 40 mM 4-(2-hydroxyethyl)-1-piperazineethanesulfonic acid (HEPES, pH 7.5), 10% (v/v) glycerol, 5.5 mM MgCl2, 1 mM DL-dithiothreitol (DTT), 50 μg/mL acetylated bovine serum albumin, 3.3% (v/v) DMSO, 4 mM ATP, 25 μM single-stranded M13 DNA hybridized to double-tailed 68-mer oligonucleotide and 3 μg/mL HSV-1 helicase-primase. After incubation for 20 min at 34°, formation of inorganic phosphate from hydrolysis of ATP was monitored spectrophotometrically at 650 nm using acidic ammonium molybdate/malachite green reagent, P. A. Lanzetta et al., Anal. Biochem. 1979, 100, 95. DNA-dependent ATPase activity was calculated from the net absorbance change in the presence and absence of inhibition.

HCMV (strain AD169) = assay: Inhibition of HCMV replication, plaque reduction assay (PRA, Hs-68 cells); type: cell-based, Human Cytomegalovirus (HCMV); conditions: read-out: PRA CMV EC50
Procedure: C) Inhibition of Human Cytomegalovirus (HCMV) Replication
The effect of compounds on the replication of HCMV has been measured by using an ELISA-based assay (ELISA) and a plaque reduction assay (PRA).
Hs-68 cells (ATCC # CRL 1635) were seeded in 12-well plates at 83,000 cells/well in 1 mL of DMEM medium (Gibco Canada Inc.) supplemented with 10% fetal bovine serum (FBS, Gibco Canada Inc.). The plates were incubated for 3 days at 37° to allow the cells to reach 80-90% confluency prior to the assay.
The medium was removed from the cells by aspiration. The cells were then infected with approximately 50 PFU of HCMV (strain AD169, ATCC VR-538) in DMEM medium supplemented with 5% inactivated FBS (assay medium). The virus was allowed to adsorb to cells for 2 h at 37°. Following viral adsorption, the medium was removed from the wells by aspiration. The cells were then incubated with or without 1 mL of appropriate concentrations of test reagent in assay medium. After 4 days of incubation at 37°, the medium was exchanged with fresh medium containing test compound and 4 days later the cells were fixed with 1% aqueous formaldehyde and stained with a 2% crystal violet solution in 20% ethanol in water. Microscopic plaques were counted using a stereomicroscope. Drug effects were calculated as a percent reduction in the number of plaques in the presence of each drug concentration compared to the number observed in the absence of drug. Ganciclovir was used as a positive control in all experiments.
The EC50 values obtained according to this assay for certain thiazolyl derivatives of this invention are listed in the following tables under the heading PRA CMV.

[1] = Human alphaherpesvirus 1, BHK-21, Group 1 Table 1 entries
[2] = Human betaherpesvirus 5, AD169, Hs68, Group 1 Table 1 entries
[3] = Human betaherpesvirus 5, AD169, Hs68, Group 2 Table 1 entries

T1 sequence (P10192 whole entry): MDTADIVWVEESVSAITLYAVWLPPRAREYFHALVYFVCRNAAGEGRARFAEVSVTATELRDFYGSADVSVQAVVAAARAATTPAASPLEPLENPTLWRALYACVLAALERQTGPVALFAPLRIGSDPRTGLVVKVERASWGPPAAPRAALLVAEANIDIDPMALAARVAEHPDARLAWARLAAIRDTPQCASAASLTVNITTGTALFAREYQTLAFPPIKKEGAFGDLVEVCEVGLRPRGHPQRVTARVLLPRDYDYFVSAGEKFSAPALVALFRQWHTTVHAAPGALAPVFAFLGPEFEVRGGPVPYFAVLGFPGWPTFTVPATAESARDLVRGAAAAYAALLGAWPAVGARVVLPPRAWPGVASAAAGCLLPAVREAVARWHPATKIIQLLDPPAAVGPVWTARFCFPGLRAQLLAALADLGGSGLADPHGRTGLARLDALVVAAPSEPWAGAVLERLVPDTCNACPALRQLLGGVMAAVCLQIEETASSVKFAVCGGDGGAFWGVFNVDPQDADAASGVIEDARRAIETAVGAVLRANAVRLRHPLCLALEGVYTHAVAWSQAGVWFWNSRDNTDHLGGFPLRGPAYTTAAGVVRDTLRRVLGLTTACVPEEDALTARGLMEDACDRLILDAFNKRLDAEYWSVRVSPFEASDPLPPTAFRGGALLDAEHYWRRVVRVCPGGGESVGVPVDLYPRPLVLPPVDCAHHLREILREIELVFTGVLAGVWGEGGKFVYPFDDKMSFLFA
T1 sequence (P10236 whole entry): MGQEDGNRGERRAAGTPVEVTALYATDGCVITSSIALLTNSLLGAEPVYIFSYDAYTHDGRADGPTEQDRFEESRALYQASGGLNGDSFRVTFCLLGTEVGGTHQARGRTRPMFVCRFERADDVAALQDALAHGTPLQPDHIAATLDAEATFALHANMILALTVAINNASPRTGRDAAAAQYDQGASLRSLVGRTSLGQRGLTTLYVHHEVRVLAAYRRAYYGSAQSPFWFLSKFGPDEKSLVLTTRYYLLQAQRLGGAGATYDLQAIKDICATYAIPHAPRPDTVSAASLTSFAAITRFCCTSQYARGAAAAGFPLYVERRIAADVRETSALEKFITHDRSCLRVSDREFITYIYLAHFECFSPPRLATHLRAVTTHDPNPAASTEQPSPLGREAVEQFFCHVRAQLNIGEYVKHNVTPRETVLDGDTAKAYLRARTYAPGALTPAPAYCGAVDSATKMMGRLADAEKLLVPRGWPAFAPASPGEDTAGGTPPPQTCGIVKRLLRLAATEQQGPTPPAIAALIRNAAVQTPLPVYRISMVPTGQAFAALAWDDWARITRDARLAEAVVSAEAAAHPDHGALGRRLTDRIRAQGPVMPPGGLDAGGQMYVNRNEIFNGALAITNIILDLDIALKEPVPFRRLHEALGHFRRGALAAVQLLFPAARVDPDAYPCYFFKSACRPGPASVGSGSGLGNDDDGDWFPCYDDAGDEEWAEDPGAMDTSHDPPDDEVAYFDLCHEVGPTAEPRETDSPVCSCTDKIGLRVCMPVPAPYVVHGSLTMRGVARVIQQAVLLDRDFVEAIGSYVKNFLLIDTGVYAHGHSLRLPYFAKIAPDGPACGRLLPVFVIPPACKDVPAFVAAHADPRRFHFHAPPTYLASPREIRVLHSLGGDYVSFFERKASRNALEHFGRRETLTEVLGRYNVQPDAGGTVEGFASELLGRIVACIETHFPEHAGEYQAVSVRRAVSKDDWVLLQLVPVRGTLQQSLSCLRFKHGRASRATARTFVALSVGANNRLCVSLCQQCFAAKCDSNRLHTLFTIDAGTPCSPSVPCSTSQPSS
T1 sequence (P10189 whole entry): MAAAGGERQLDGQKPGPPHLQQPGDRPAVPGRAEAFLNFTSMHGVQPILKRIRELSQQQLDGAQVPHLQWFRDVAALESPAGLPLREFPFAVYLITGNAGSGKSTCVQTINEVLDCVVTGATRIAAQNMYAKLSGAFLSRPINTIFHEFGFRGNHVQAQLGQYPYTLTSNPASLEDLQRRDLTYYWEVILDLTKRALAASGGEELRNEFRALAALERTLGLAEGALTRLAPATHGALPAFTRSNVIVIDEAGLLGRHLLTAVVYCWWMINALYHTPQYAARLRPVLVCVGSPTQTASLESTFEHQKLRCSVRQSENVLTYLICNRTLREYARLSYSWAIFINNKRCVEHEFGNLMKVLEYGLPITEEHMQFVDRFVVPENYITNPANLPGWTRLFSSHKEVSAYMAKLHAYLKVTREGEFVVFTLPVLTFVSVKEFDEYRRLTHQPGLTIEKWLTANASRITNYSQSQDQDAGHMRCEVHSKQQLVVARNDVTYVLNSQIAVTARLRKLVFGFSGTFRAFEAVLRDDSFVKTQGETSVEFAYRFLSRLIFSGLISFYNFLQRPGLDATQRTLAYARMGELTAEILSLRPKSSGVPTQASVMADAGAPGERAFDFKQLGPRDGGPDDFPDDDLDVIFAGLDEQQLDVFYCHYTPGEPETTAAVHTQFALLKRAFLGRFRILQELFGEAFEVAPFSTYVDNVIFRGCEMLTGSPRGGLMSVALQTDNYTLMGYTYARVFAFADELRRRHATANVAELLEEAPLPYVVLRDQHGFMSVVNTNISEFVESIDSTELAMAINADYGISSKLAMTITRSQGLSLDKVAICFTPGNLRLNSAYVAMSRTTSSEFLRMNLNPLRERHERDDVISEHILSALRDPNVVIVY

Compound	IC50 (HSV-1 helicase-primase; Group 1 Table 1 entries) [µM]	EC50 (HCMV (strain AD169); [2]) [µM]	other results
CN(C(=O)CNCc1ccccc1)c1ccc(-c2csc(N)n2)cc1 [Example 3]	–	–	EC50 (HSV-1 strain F or KOS; Human alphaherpesvirus 1, BHK-21, Group 1 Table 3 entries): 4 µM; IC50 (HSV-1 helicase-primase; Group 1 Table 3 entries): 13 µM; EC50 (HCMV (strain AD169); Human betaherpesvirus 5, AD169, Hs68, Group 1 Table 3 entries): 80 µM
Nc1nc(-c2ccc(NC(=O)CNCc3ccc(F)cc3)cc2)cs1 [Example 4]	3.5	16	EC50 (HSV-1 strain F or KOS; [1]): 1.8 µM
Nc1nc(-c2ccc(NC(=O)CCN(Cc3ccccc3)C(=O)c3cccnc3)cc2)cs1 [Example 6]	–	–	EC50 (HSV-1 strain F or KOS; Human alphaherpesvirus 1, BHK-21, Group 1 Table 2 entries): 4.8 µM; EC50 (HCMV (strain AD169); Human betaherpesvirus 5, AD169, Hs68, Group 1 Table 2 entries): 22 µM
Nc1nc(-c2ccc(NC(=O)NCCc3ccccc3)cc2)cs1 [Example 13]	–	–	IC50 (HSV-1 helicase-primase; Group 2 Table 1 entries): 37 µM; EC50 (HCMV (strain AD169); [3]): > 4 µM
C#CCNC(=O)Nc1ccc(-c2csc(N)n2)cc1 [Example 17]	–	–	IC50 (HSV-1 helicase-primase; Group 2 Table 1 entries): 33 µM; EC50 (HCMV (strain AD169); [3]): > 74 µM
CN[C@H](Cc1ccccc1)C(=O)Nc1ccc(-c2csc(N)n2)cc1 [Example 18]	–	–	IC50 (HSV-1 helicase-primase; Group 1 Table 5 entries): 24.5 µM; EC50 (HCMV (strain AD169); Human betaherpesvirus 5, AD169, Hs68, Group 1 Table 5 entries): > 48 µM
Nc1nc(-c2ccc(NC(=O)CNC(=O)c3ccccn3)cc2)cs1 [Example 19]	13	20	EC50 (HSV-1 strain F or KOS; [1]): 4.5 µM
Nc1nc(-c2ccc(NC(=O)CNC(=O)c3cccnc3)cc2)cs1 [Example 20]	23	60	–
Nc1nc(-c2ccc(NC(=O)CNC(=O)c3ccncc3)cc2)cs1 [Example 21]	4.2	> 71	EC50 (HSV-1 strain F or KOS; [1]): 1.3 µM
Nc1nc(-c2ccc(NC(=O)N[C@H](CO)Cc3ccccc3)cc2)cs1 [Example 28]	–	–	IC50 (HSV-1 helicase-primase; Group 2 Table 1 entries): 6.6 µM; EC50 (HCMV (strain AD169); [3]): 30 µM
Nc1nc(-c2ccc(NC(=O)CN(Cc3ccccc3)C(=O)C3CCCCCC3)cc2)cs1 [Example 37]	0.029	> 74	EC50 (HSV-1 strain F or KOS; [1]): 0.002 µM
Nc1nc(-c2ccc(NC(=O)CN(Cc3ccc(Cl)cc3)C(=O)C3CCCCC3)cc2)cs1 [Example 45]	0.05	5.5	EC50 (HSV-1 strain F or KOS; [1]): 0.001 µM
NCC(=O)N(CC(=O)Nc1ccc(-c2csc(N)n2)cc1)Cc1ccccc1 [Example 71]	30	> 32	–
Nc1nc(-c2ccc(NC(=O)CN(Cc3ccccc3)C(=O)COc3ccccc3)cc2)cs1 [Example 120]	0.54	15	–
Nc1nc(-c2ccc(NC(=O)CN(CCc3ccccc3)C(=O)c3ccncc3)cc2)cs1 [Example 125]	0.159	80	–
Cc1ccccc1CN(CC(=O)Nc1ccc(-c2csc(N)n2)cc1)C(=O)Cc1cccs1 [Example 131]	–	16	–
Cc1ccccc1CN(CC(=O)Nc1ccc(-c2csc(N)n2)cc1)C(=O)Cc1ccsc1 [Example 132]	–	14	–
Cc1ccccc1CN(CC(=O)Nc1ccc(-c2csc(N)n2)cc1)C(=O)c1ccsc1 [Example 133]	–	17	–
C[C@@H](c1ccccc1)N(CC(=O)Nc1ccc(-c2csc(N)n2)cc1)C(=O)c1cccnc1 [Example 134]	0.26	18	–
C[C@H](c1ccccc1)N(CC(=O)Nc1ccc(-c2csc(N)n2)cc1)C(=O)Cc1ccccn1 [Example 136]	4.2	31	–
C[C@H](c1ccccc1)N(CC(=O)Nc1ccc(-c2csc(N)n2)cc1)C(=O)c1ccncc1 [Example 137]	0.98	49	–
